From article PMC5487684, “Safety, Pharmacokinetics, and Antiviral Activity of a Novel HIV Antiviral, ABX464, in Treatment-Naive HIV-Infected Subjects in a Phase 2 Randomized, Controlled Study” (Antimicrobial Agents and Chemotherapy, 2017)

Tested on: HIV-infected subjects
Test: Safety and tolerability (TEAEs, ECG, laboratory) after repeated oral administration, phase 2a study
Type: in vivo, human
Details: for Subjects experiencing at least one TEAE: Flank pain / Subjects experiencing at least one TEAE: Headache / Subjects experiencing at least one TEAE: Injury, poisoning, and procedural complications / Subjects experiencing at least one TEAE: Musculoskeletal and connective tissue disorders / Subjects experiencing at least one TEAE: Nausea / Subjects experiencing at least one TEAE: Neck pain / Subjects experiencing at least one TEAE: Nervous system disorders / Subjects experiencing at least one TEAE: Pain in extremity / Subjects experiencing at least one TEAE: Sciatica, back pain / Subjects experiencing at least one TEAE: Skin abrasion / Subjects experiencing at least one TEAE: Total / Subjects experiencing at least one TEAE: Upper abdominal pain / Subjects experiencing at least one TEAE: Vomiting / Subjects experiencing at least one TEAE: Abdominal pain / Subjects experiencing at least one TEAE: Arthralgia / Subjects experiencing at least one TEAE: Back pain / Subjects experiencing at least one TEAE: Diarrhea / Subjects experiencing at least one TEAE: Gastrointestinal disorders: fed
Experimental: Participants were assigned to one of eight groups; each group (with one exception) included eight subjects receiving either ABX464 (n = 6) or the corresponding placebo (n = 2) according to a randomization code. […] In the present study with HIV-infected subjects, the first dose administered was 25 mg, given once or 3 times a day over a 2- to 3-week period. This initial dose was therefore considered safe for assessment of the safety and tolerability of ABX464 after repeated oral administrations in subjects infected by HIV and determination of the potential effect on the HIV viral load.
The final dosing protocol for each of the eight groups was as follows: group 1, 25 mg every 3 days for 2 to 3 weeks under fasted conditions; group 2, 25 mg once a day (q.d.) for 2 to 3 weeks under fasted conditions; group 3, 50 mg once a day for 2 to 3 weeks under fasted conditions; group 4, 50 mg 3 times a day (t.i.d.) for 4 weeks under fed conditions; group 5, 75 mg once a day for 2 weeks under fed conditions; group 6, 100 mg once a day for 2 to 3 weeks under fasted conditions; group 7, 150 mg every 3 days for 2 to 3 weeks under fed conditions; and group 8, 150 mg once a day for 2 weeks under fed conditions. Per the study protocol, the treatment period was defined as 2 weeks. […] The decision to proceed to the next highest dose was determined by the data and safety monitoring board after review of the laboratory safety data, vital signs, ECGs, and adverse event reports from the group receiving the current dose after 2 weeks of treatment.
Subjects were hospitalized from the day prior to the first dose to at least the morning of day 2. They were orally dosed with 25-mg capsules of ABX464 with 240 ml water under fed or fasted conditions. According to the group, subjects were dosed with 1, 2, 3, 4, or 6 capsules to deliver 25 mg, 50 mg, 75 mg, 100 mg, or 150 mg product, respectively, or the same number of placebo capsules.
Safety assessments and laboratory tests were carried out according to the schedules described in Table S4 for groups dosed every day, every 3 days, and 3 times a day. Follow-up visits were scheduled for 7 days after the last dose and subsequently once every week in order to assess the elimination of the main ABX464 metabolite and to assess the viral load. Follow-up visits were terminated when the virus load was within 0.5 log of the baseline value or after 3 follow-up visits, whichever came first. Prior to the statistical analyses, AEs were coded using the Medical Dictionary for Regulatory Activities (MedDRA dictionary; last available version) in order to be tabulated by system organ class (SOC) and preferred term (PT). The AEs were analyzed according to the treatment emergence phase from the first study drug administration on day 1 up to 48 h after the last study drug administration. The number and percentage of subjects with at least one TEAE were tabulated by SOC and PT for each group and dose. The number of occurrences of TEAEs was also analyzed in the same way by SOC and PT for each group and dose, by grade of severity for each group and dose, and by level of causality to the study drug for each group and dose.

[1] = Group 7 (n = 6), 150 mg every 3 days, Mild
[2] = Group 7 (n = 6), 150 mg every 3 days, Moderate
[3] = Group 8 (n = 6), 150 mg q.d., Mild
[4] = Group 8 (n = 6), 150 mg q.d., Moderate

## FC(F)(F)Oc1ccc(Nc2ccc3cccc(Cl)c3n2)cc1 [ABX464]
[1]
  Subjects experiencing at least one TEAE: Flank pain: 0 (0.0) No. (%)
  Subjects experiencing at least one TEAE: Headache: 4 (66.7) No. (%)
  Subjects experiencing at least one TEAE: Injury, poisoning, and procedural complications: 0 (0.0) No. (%)
  Subjects experiencing at least one TEAE: Musculoskeletal and connective tissue disorders: 1 (16.7) No. (%)
  Subjects experiencing at least one TEAE: Nausea: 4 (66.7) No. (%)
  Subjects experiencing at least one TEAE: Neck pain: 0 (0.0) No. (%)
  Subjects experiencing at least one TEAE: Nervous system disorders: 4 (66.7) No. (%)
  Subjects experiencing at least one TEAE: Pain in extremity: 0 (0.0) No. (%)
  Subjects experiencing at least one TEAE: Sciatica, back pain: 0 (0.0) No. (%)
  Subjects experiencing at least one TEAE: Skin abrasion: 0 (0.0) No. (%)
  Subjects experiencing at least one TEAE: Total: 5 (83.3) No. (%)
  Subjects experiencing at least one TEAE: Upper abdominal pain: 0 (0.0) No. (%)
  Subjects experiencing at least one TEAE: Vomiting: 1 (16.7) No. (%)
[2]
  Subjects experiencing at least one TEAE: Abdominal pain: 0 (0.0) No. (%)
  Subjects experiencing at least one TEAE: Arthralgia: 0 (0.0) No. (%)
  Subjects experiencing at least one TEAE: Back pain: 0 (0.0) No. (%)
  Subjects experiencing at least one TEAE: Diarrhea: 0 (0.0) No. (%)
  Subjects experiencing at least one TEAE: Flank pain: 0 (0.0) No. (%)
  Subjects experiencing at least one TEAE: Gastrointestinal disorders: 3 (50.0) No. (%)
  Subjects experiencing at least one TEAE: Headache: 3 (50.0) No. (%)
  Subjects experiencing at least one TEAE: Injury, poisoning, and procedural complications: 0 (0.0) No. (%)
  Subjects experiencing at least one TEAE: Musculoskeletal and connective tissue disorders: 0 (0.0) No. (%)
  Subjects experiencing at least one TEAE: Nausea: 3 (50.0) No. (%)
  Subjects experiencing at least one TEAE: Neck pain: 0 (0.0) No. (%)
  Subjects experiencing at least one TEAE: Nervous system disorders: 4 (66.7) No. (%)
  Subjects experiencing at least one TEAE: Pain in extremity: 0 (0.0) No. (%)
  Subjects experiencing at least one TEAE: Sciatica, back pain: 0 (0.0) No. (%)
  Subjects experiencing at least one TEAE: Skin abrasion: 0 (0.0) No. (%)
  Subjects experiencing at least one TEAE: Total: 4 (66.7) No. (%)
  Subjects experiencing at least one TEAE: Upper abdominal pain: 0 (0.0) No. (%)
  Subjects experiencing at least one TEAE: Vomiting: 3 (50.0) No. (%)
[3]
  Subjects experiencing at least one TEAE: Abdominal pain: 1 (16.7) No. (%)
  Subjects experiencing at least one TEAE: Arthralgia: 0 (0.0) No. (%)
  Subjects experiencing at least one TEAE: Back pain: 0 (0.0) No. (%)
  Subjects experiencing at least one TEAE: Diarrhea: 0 (0.0) No. (%)
  Subjects experiencing at least one TEAE: Flank pain: 0 (0.0) No. (%)
  Subjects experiencing at least one TEAE: Gastrointestinal disorders: 6 (100.0) No. (%)
  Subjects experiencing at least one TEAE: Headache: 6 (100.0) No. (%)
  Subjects experiencing at least one TEAE: Injury, poisoning, and procedural complications: 0 (0.0) No. (%)
  Subjects experiencing at least one TEAE: Musculoskeletal and connective tissue disorders: 1 (16.7) No. (%)
  Subjects experiencing at least one TEAE: Nausea: 6 (100.0) No. (%)
  Subjects experiencing at least one TEAE: Neck pain: 0 (0.0) No. (%)
  Subjects experiencing at least one TEAE: Nervous system disorders: 6 (100.0) No. (%)
  Subjects experiencing at least one TEAE: Pain in extremity: 1 (16.7) No. (%)
  Subjects experiencing at least one TEAE: Sciatica, back pain: 0 (0.0) No. (%)
  Subjects experiencing at least one TEAE: Skin abrasion: 0 (0.0) No. (%)
  Subjects experiencing at least one TEAE: Total: 6 (100.0) No. (%)
  Subjects experiencing at least one TEAE: Upper abdominal pain: 0 (0.0) No. (%)
  Subjects experiencing at least one TEAE: Vomiting: 4 (66.7) No. (%)
[4]
  Subjects experiencing at least one TEAE: Abdominal pain: 0 (0.0) No. (%)
  Subjects experiencing at least one TEAE: Arthralgia: 0 (0.0) No. (%)
  Subjects experiencing at least one TEAE: Back pain: 0 (0.0) No. (%)
  Subjects experiencing at least one TEAE: Diarrhea: 0 (0.0) No. (%)
  Subjects experiencing at least one TEAE: Flank pain: 0 (0.0) No. (%)
  Subjects experiencing at least one TEAE: Headache: 0 (0.0) No. (%)
  Subjects experiencing at least one TEAE: Injury, poisoning, and procedural complications: 1 (16.7) No. (%)
  Subjects experiencing at least one TEAE: Musculoskeletal and connective tissue disorders: 0 (0.0) No. (%)
  Subjects experiencing at least one TEAE: Nausea: 0 (0.0) No. (%)
  Subjects experiencing at least one TEAE: Neck pain: 0 (0.0) No. (%)
  Subjects experiencing at least one TEAE: Nervous system disorders: 0 (0.0) No. (%)
  Subjects experiencing at least one TEAE: Pain in extremity: 0 (0.0) No. (%)
  Subjects experiencing at least one TEAE: Sciatica, back pain: 0 (0.0) No. (%)
  Subjects experiencing at least one TEAE: Skin abrasion: 1 (16.7) No. (%)
  Subjects experiencing at least one TEAE: Total: 1 (16.7) No. (%)
  Subjects experiencing at least one TEAE: Upper abdominal pain: 0 (0.0) No. (%)
  Subjects experiencing at least one TEAE: Vomiting: 0 (0.0) No. (%)
All other groups (4 to 8)
  Frequency of subjects receiving ABX464 who reported TEAEs: 100%
Group receiving 150 mg ABX464
  Subjects with vomiting episodes: 66.7%
In vivo
  Changes in laboratory parameters between baseline and posttreatment: none of the changes in any laboratory parameter observed between baseline and posttreatment measurements suggested an impact
  Electrocardiogram (ECG) parameters: no clinically significant abnormalities
  Product-related SAEs: no product-related SAEs occurred
overall
  Subjects reporting upper abdominal pain: 6%
Subjects who received the study drug, regardless of the dose or the drug regimen
  Number of AEs reported: 158 AEs
Twenty cases, none in placebo
  Subjects reporting upper abdominal pain: 4 subjects
Up to 150 mg once a day, HIV-infected subjects
  Overall safety and tolerability: safe and well tolerated
